Measured values from patent publication US12454509B2, “Local anesthetics with selective-sensory nerve blockade” (Children's Medical Center Corporation, priority 2019, dated 2025).

Key:
[1] = test system: sciatic nerve; assay: Sciatic nerve block in rats: duration of thermal nociceptive (sensory) block, modified hotplate test; format: in vivo, rat; conditions: for Sensory:Motor Block Ratio: rat sciatic nerve block; for Block Duration (min) Sensory: rat sciatic nerve injection 0.3 mL
Description: (§1) Sciatic Nerve Block and Neurobehavioral Testing. Animals were cared for in compliance with protocols approved by the Children's Hospital Animal Care and Use Committee, and the Massachusetts Institute of Technology Committee on Animal Care, which conformed to guidelines of the International Association for the Study of Pain. Adult male Sprague-Dawley rats (Charles River Laboratories) weighing 320-450 g were housed in groups, in a 6 AM to 6 PM light-dark cycle. Under brief isoflurane-oxygen anesthesia, a 23G needle was introduced postero-medial to the greater trochanter, until bone was contacted, and 0.3 mL of test solution was injected over the sciatic nerve. Thermal nociception was assessed by a modified hotplate test, and motor function via a weight-bearing test. […] Motor strength was assessed with a weight-bearing test. In brief, the animal was held over a digital balance such that it could bear weight with 1 hind paw at a time. The maximum weight that it could bear was recorded. The duration of motor blockade was defined as the time for weight bearing to return halfway to normal from maximal block. The halfway point for each rat was defined as […].

[2] = test system: C2C12 Mouse myoblasts; assay: Cytotoxicity in C2C12 myotubules; format: cell-based; conditions: C2C12 cells, FIG. 2 / Table 2
Protocol: (§2) C2C12 Mouse myoblasts [American Type Culture Collection (ATCC) CRL-1772] were cultured to proliferate in DMEM supplemented with 20% FBS and 100 Penicillin Streptomycin. Cell culture supplies were obtained from Invitrogen, unless otherwise noted. Cells were plated at 50,000 cells per mL in DMEM with 2% horse serum and 1% Penn Strep, and left to differentiate into myotubules for 10-14 days. During differentiation, media were exchanged every 2 to 3 days. Cell viability and proliferation were studied after exposures to drugs for up to 24 h. PC12 cells (ATCC, CRL-1721) originating from rat adrenal gland pheochromocytoma were grown in 24-well tissue culture dishes (CellBind; Corning) with F-12K (ATCC) supplemented with 12.5% horse serum (Gibco), 2.5% FBS (Gibco), and 1% Penn Strep (Sigma). For neuronal induction (PC12), cells were seeded at a relative low density of 5×10^4 cells/cm2 and 50 ng/mL NGF was added 24 h after seeding. Cell viability and proliferation were evaluated as for C2C12 cells. Experiments with PC12 cells were conducted for up to 24 hours.

[3] = test system: PC12 cells; assay: Cytotoxicity in PC12 cells; format: cell-based, rat; conditions: FIG. 1 / Table 2
Protocol: as §2

[4] = test system: sciatic nerve; assay: Sciatic nerve block in rats: duration of motor block, weight-bearing test; format: in vivo; conditions: rat sciatic nerve injection 0.3 mL
Description: as §1

| Structure (SMILES) | Sensory:Motor Block Ratio ([1]; dose conc 5 mM) | Block Duration (min) Sensory ([1]; dose conc 5 mM) | Block Duration (min) Sensory ([1]; dose conc 7.5 mM) | Block Duration (min) Sensory ([1]; dose conc 10 mM) | cytotoxicity compared with ropivacaine and bupivacaine (in words) [2] | cytotoxicity compared with ropivacaine and bupivacaine (in words) [3] | Block Duration (min) Motor ([4]; dose conc 5 mM) | Block Duration (min) Motor ([4]; dose conc 7.5 mM) | Block Duration (min) Motor ([4]; dose conc 10 mM) | Block Duration (min) Sensory ([1]; dose conc 15 mM) | Block Duration (min) Motor ([4]; dose conc 15 mM) |
| --- | --- | --- | --- | --- | --- | --- | --- | --- | --- | --- | --- |
| CCCC[N@+]1(CC(=O)OC)CCCC[C@H]1C(=O)Nc1c(C)cccc1C (racemic) [2a + 2b, 1-Butyl-2-((2,6-dimethylphenyl)carbamoyl)-1-(2-methoxy-2-oxoethyl)piperidin-1-ium bromide] | ∞ | 30 ± 12 min | 120 ± 34 min | 150 ± 51 min | significantly less cytotoxic than ropivacaine and bupivacaine | significantly less cytotoxic than ropivacaine and bupivacaine | 0 min | 30 ± 15 min | 50 ± 23 min |  |  |
| CCC[N@+]1(CC(=O)OC)CCCC[C@H]1C(=O)Nc1c(C)cccc1C.[Br-] (racemic) [4Sa + 4Sb, 2-((2,6-Dimethylphenyl)carbamoyl)-1-(2-methoxy-2-oxoethyl)-1-propylpiperidin-1-ium bromide] | ∞ | 34 ± 13 min | 108 ± 27 min | 220 ± 40 min | significantly less cytotoxic than ropivacaine and bupivacaine | significantly less cytotoxic than ropivacaine and bupivacaine | 0 min | 10 ± 10 min | 78 ± 24 min | 254 ± 48 min | 69 ± 20 min |
| COC(=O)C[N@@+]1(C)CCCC[C@H]1C(=O)Nc1c(C)cccc1C (racemic) [Compound 3a, 2-((2,6-Dimethylphenyl)carbamoyl)-1-(2-methoxy-2-oxoethyl)-1-methylpiperidin-1-ium bromide] |  |  |  | 0 min |  |  |  |  | 0 min |  |  |
| COC(=O)C[N@@+]1(C)CCCC[C@@H]1C(=O)Nc1c(C)cccc1C (racemic) [Compound 3b, 2-((2,6-Dimethylphenyl)carbamoyl)-1-(2-methoxy-2-oxoethyl)-1-methylpiperidin-1-ium bromide] |  |  |  | 450 ± 60 min |  |  |  |  | 300 ± 60 min |  |  |
| CCCN1CCCC[C@H]1C(=O)Nc1c(C)cccc1C (single isomer, unassigned) [(S)-Ropivacaine, reference compound] |  |  |  | 150 ± 35 min |  |  |  |  | 150 ± 38 min | 215 ± 31 min | 210 ± 28 min |
| CCCC(=O)OC[N+]1(CCC)CCCC[C@H]1C(=O)Nc1c(C)cccc1C.[Cl-] (stereo in doubt) [Compound 11S, 1-((Butyryloxy)methyl)-2-((2,6-dimethylphenyl)carbamoyl)-1-propylpiperidin-1-ium chloride] |  |  |  | 135 ± 56 min | significantly less cytotoxic than ropivacaine and bupivacaine | significantly less cytotoxic than ropivacaine and bupivacaine |  |  | 90 ± 44 min |  |  |
| Br.CC[N+](CC)(CC(=O)Nc1c(C)cccc1C)CC(=O)OC [Compound 1, 2-((2,6-Dimethylphenyl)amino)-N,N-diethyl-N-(2-methoxy-2-oxoethyl)-2-oxoethan-1-aminium bromide] |  |  |  |  | significantly less cytotoxic than ropivacaine and bupivacaine | significantly less cytotoxic than ropivacaine and bupivacaine |  |  |  |  |  |
| CCCC[N+]1(COC(C)=O)CCCCC1C(=O)Nc1c(C)cccc1C.[Br-] (stereo not shown) [Compound 9, 1-(Acetoxymethyl)-1-butyl-2-((2,6-dimethylphenyl)carbamoyl)piperidin-1-ium bromide] |  | 65 ± 23 min |  | 120 ± 53 min |  |  | 25 ± 19 min |  | 75 ± 39 min | 125 ± 51 min | 85 ± 36 min |
